Laboratory results from patent US10800791B2, “Triazole ACC inhibitors and uses thereof” (Gilead Apollo, LLC, priority 2015, dated 2020).
In brackets after ≈: the same amount, converted by molar mass. Like-named read-outs stand apart in the source and are kept apart here.

Key:
C. parapsilosis = assay: Antifungal Activity Assay (broth microtiter MIC), C. parapsilosis; format: cell-based, Candida parapsilosis; conditions: Lodderomyces parapsilosis, ATCC22019, 48 h
Procedure, shortened: (§1)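 MIC read by eye at 48 h, comparing challenged wells with the growth control. Yeasts grown overnight on Sabouraud dextrose agar at 35° C, suspended in RPMI 1640+MOPS and added at 2.5×10^3 CFU/mL final, following CLSI M27-A3.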

human (hACC2) = human (hACC2) (Homo sapiens, UniProt O00763); assay: In vitro ACC inhibition assay (ADP-Glo), hACC2; format: biochemical; conditions: 5 nM ACC2, 20 μM ATP, 20 μM acetyl-CoA
Protocol: The detailed procedure is as follows. […] 10 μL ADP glo reagent was added. […] 20 μL kinase detection reagent was added.

Septoria tritici (St) = assay: Growth inhibition assay of fungal pathogens, St; format: cell-based; conditions: Zymoseptoria tritici, 48 h
Procedure, shortened: (§2)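 Percent inhibition derived at 48 hours from OD600 and visual scores versus 2% DMSO control, with media+DMSO blank as background. Spore inocula in 17% V8 medium were sized from 48 h growth curves; compounds tested at final 50/10/2 or 2/0.4/0.08 ppm.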

[1] = tested on: Phytophthora capsici (Pc); assay: Growth inhibition assay of fungal pathogens, Pc; format: cell-based; conditions: 48 h
Procedure, shortened: as §2

C. albicans = assay: Antifungal Activity Assay (broth microtiter MIC), C. albicans; format: cell-based, Candida albicans; conditions: Candida albicans, ATCC90028, 48 h
Procedure, shortened: as §1

[2] = tested on: Collectotrichum graminicola (Cg); assay: Growth inhibition assay of fungal pathogens, Cg; format: cell-based; conditions: 48 h
Procedure, shortened: as §2

Rhizoctonia solani (Rs) = assay: Growth inhibition assay of fungal pathogens, Rs; format: cell-based; conditions: 48 h
[3] = tested on: Fusarium moniliforme (Fm); assay: Growth inhibition assay of fungal pathogens, Fm; format: cell-based; conditions: for IC90: Fusarium verticillioides, 48 h, read-out: Concentration at 90% Inhibition Fm
Procedure, shortened: as §2

C. krusei = assay: Antifungal Activity Assay (broth microtiter MIC), C. krusei; format: cell-based, Candida krusei; conditions: Pichia kudriavzevii, ATCC6258, 48 h
Procedure, shortened: as §1

[4] = tested on: Fusarium virguliforme (Fv); assay: Growth inhibition assay of fungal pathogens, Fv; format: cell-based; conditions: 48 h
Procedure, shortened: as §2

Diplodia maydis (Dm) = assay: Growth inhibition assay of fungal pathogens, Dm; format: cell-based; conditions: Stenocarpella maydis, 48 h
Procedure, shortened: as §2

[5] = Fusarium moniliforme, growth inhibition at 48 hours vs 2% DMSO control

Chain of human (hACC2) (O00763 whole entry): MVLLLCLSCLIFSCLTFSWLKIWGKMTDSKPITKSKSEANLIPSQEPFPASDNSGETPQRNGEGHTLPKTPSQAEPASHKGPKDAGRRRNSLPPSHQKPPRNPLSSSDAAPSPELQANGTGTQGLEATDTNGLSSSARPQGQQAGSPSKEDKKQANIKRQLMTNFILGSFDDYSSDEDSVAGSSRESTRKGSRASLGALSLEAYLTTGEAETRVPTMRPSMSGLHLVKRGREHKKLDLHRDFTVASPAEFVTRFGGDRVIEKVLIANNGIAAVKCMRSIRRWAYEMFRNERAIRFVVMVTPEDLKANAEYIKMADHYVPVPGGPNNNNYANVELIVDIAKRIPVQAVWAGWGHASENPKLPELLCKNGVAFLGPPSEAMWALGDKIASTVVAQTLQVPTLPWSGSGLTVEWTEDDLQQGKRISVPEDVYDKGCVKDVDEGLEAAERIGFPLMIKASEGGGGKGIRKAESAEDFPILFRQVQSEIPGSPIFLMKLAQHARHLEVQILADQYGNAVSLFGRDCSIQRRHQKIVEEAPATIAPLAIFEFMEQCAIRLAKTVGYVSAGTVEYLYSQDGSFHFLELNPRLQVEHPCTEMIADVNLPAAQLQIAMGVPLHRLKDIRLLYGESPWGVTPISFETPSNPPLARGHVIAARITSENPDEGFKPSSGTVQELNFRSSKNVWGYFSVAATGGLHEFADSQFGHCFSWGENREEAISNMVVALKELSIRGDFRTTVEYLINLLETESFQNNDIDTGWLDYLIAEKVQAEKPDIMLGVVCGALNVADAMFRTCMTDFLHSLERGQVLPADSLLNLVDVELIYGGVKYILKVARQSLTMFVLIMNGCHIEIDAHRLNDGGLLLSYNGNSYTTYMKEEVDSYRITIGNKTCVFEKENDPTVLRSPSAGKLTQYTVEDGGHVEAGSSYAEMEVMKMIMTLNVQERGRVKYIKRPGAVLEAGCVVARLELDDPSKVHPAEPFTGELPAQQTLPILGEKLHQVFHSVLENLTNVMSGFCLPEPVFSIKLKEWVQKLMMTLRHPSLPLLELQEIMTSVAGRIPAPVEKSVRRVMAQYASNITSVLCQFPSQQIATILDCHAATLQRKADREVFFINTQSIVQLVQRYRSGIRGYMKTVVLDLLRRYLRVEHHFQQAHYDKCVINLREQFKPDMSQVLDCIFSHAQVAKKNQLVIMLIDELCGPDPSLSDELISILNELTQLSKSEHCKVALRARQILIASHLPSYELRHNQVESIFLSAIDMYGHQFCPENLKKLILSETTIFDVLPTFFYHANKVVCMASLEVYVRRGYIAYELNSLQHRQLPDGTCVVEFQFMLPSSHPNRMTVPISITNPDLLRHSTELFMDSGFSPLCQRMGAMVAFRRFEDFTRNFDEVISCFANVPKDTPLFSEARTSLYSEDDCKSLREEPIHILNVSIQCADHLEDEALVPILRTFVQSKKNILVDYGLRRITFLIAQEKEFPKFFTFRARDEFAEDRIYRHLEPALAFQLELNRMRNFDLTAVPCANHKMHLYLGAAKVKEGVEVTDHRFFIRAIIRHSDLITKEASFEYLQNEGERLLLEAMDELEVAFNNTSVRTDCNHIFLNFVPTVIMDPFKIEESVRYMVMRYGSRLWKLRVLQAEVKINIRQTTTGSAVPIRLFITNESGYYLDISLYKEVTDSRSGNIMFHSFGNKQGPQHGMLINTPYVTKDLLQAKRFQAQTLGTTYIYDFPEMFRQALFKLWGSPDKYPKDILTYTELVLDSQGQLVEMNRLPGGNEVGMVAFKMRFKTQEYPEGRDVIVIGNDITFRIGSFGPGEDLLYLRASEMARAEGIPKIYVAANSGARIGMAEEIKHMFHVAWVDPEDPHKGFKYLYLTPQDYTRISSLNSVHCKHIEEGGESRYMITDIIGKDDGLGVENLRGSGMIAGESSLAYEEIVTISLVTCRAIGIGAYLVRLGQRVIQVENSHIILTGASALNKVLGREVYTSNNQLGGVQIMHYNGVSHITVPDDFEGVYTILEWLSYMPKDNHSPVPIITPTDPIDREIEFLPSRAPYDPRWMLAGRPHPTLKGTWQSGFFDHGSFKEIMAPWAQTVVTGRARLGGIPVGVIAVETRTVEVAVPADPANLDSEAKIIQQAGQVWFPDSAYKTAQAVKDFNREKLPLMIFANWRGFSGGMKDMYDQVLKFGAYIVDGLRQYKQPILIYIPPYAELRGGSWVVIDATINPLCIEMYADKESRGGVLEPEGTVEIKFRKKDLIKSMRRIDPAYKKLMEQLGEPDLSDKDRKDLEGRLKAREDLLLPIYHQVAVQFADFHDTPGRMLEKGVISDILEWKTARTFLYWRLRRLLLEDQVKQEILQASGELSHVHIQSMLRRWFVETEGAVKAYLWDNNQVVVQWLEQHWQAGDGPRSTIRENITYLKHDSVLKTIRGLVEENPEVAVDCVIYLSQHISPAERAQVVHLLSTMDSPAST

`COc1ccc(F)cc1[C@H](Cn1c(=O)n(C(C)(C)C(=O)N2CCCC2)c(=O)c2c(C)c(-n3nccn3)sc21)OC[C@@H](C)O` [Compound I-46, 1-((R)-2-(5-fluoro-2-methoxyphenyl)-2-((R)-2-hydroxypropoxy)ethyl)-5-methyl-3-(2-methyl-1-oxo-1-(pyrrolidin-1-yl)propan-2-yl)-6-(2H-1,2,3-triazol-2-yl)thieno[2,3-d]pyrimidine-2,4(1H,3H)-dione] gave an MIC (C. parapsilosis; Table 3a, ATCC 22019, 3 replicates, MIC recorded at 48 h, read-out: MIC, C. parapsilosis ATCC 22019) of 1.1 to 2 µg/mL (≈ 1.79 to 3.25 µM), an MIC (C. parapsilosis; Table 3b (additional results), ATCC 22019, 3 replicates, MIC recorded at 48 h, read-out: MIC, C. parapsilosis ATCC 22019) of 1.01 to 2 µg/mL (≈ 1.64 to 3.25 µM) and an IC50 (human (hACC2); Table 2a) of 5 to 10 nM. For the same compound, the IC50 (human (hACC2); Table 2b, additional results) was 5 to 10 nM, the IC90 (Septoria tritici (St); Septoria tritici, growth inhibition at 48 hours vs 2% DMSO control, read-out: Concentration at 90% Inhibition St) was over 50 µg/mL and the IC90 (Septoria tritici (St); Septoria tritici, growth inhibition vs 2% DMSO control at 48 hours, read-out: Concentration at 90% Inhibition St) was over 50 µg/mL. It also gave an IC90 ([1]; growth inhibition at 48 hours vs 2% DMSO control, read-out: Concentration at 90% Inhibition Pc) of over 50 µg/mL, an IC90 ([1]; growth inhibition vs 2% DMSO control at 48 hours, read-out: Concentration at 90% Inhibition Pc) of over 50 µg/mL and an MIC (C. albicans; Table 3a, ATCC 90028, 3 replicates, MIC recorded at 48 h, read-out: MIC, C. albicans ATCC 90028) of 0.25 to 1 µg/mL (≈ 0.407 to 1.63 µM). It also gave an MIC (C. albicans; Table 3b (additional results), ATCC 90028, 3 replicates, MIC recorded at 48 h, read-out: MIC, C. albicans ATCC 90028) of 0.25 to 1 µg/mL (≈ 0.407 to 1.63 µM), an IC90 ([2]; Collectotrichum graminicola, growth inhibition at 48 hours vs 2% DMSO control, read-out: Concentration at 90% Inhibition Cg) of 0.4 µg/mL (≈ 0.651 µM) and an IC90 ([2]; Collectotrichum graminicola, growth inhibition vs 2% DMSO control at 48 hours, read-out: Concentration at 90% Inhibition Cg) of 0.4 µg/mL (≈ 0.651 µM). For the same compound, the IC90 (Rhizoctonia solani (Rs); mycelial plugs, growth inhibition at 48 hours vs 2% DMSO control, read-out: Concentration at 90% Inhibition Rs) was 0.4 µg/mL (≈ 0.651 µM), the IC90 (Rhizoctonia solani (Rs); mycelial plugs, growth inhibition vs 2% DMSO control at 48 hours, read-out: Concentration at 90% Inhibition Rs) was 0.4 µg/mL (≈ 0.651 µM) and the IC90 [3, 5] was 0.08 µg/mL (≈ 0.13 µM). For the same compound, the IC90 ([3]; Fusarium moniliforme, growth inhibition vs 2% DMSO control at 48 hours) was 0.08 µg/mL (≈ 0.13 µM), the MIC (C. krusei; Table 3a, ATCC 6258, 3 replicates, MIC recorded at 48 h, read-out: MIC, C. krusei ATCC 6258) was 0.25 to 1 µg/mL (≈ 0.407 to 1.63 µM) and the MIC (C. krusei; Table 3b (additional results), ATCC 6258, 3 replicates, MIC recorded at 48 h, read-out: MIC, C. krusei ATCC 6258) was 2.01 to 4 µg/mL (≈ 3.27 to 6.51 µM). For the same compound, the IC90 ([4]; growth inhibition at 48 hours vs 2% DMSO control, read-out: Concentration at 90% Inhibition Fv) was 2 µg/mL (≈ 3.25 µM), the IC90 ([4]; growth inhibition vs 2% DMSO control at 48 hours, read-out: Concentration at 90% Inhibition Fv) was 2 µg/mL (≈ 3.25 µM) and the IC90 (Diplodia maydis (Dm); Diplodia maydis, growth inhibition at 48 hours vs 2% DMSO control, read-out: Concentration at 90% Inhibition Dm) was 2 µg/mL (≈ 3.25 µM). For the same compound, the IC90 (Diplodia maydis (Dm); Diplodia maydis, growth inhibition vs 2% DMSO control at 48 hours, read-out: Concentration at 90% Inhibition Dm) was 2 µg/mL (≈ 3.25 µM).

Work on `COc1ccc(F)cc1[C@H](Cn1c(=O)n(C(C)(C)C(=O)NC(C)C)c(=O)c2c(C)c(-n3nccn3)sc21)OC[C@H](C)O` [Compound I-47, 2-(1-((R)-2-(5-fluoro-2-methoxyphenyl)-2-((S)-2-hydroxypropoxy)ethyl)-5-methyl-2,4-dioxo-6-(2H-1,2,3-triazol-2-yl)-1,4-dihydro-thieno[2,3-d]pyrimidin-3(2H)-yl)-N-isopropyl-2-methylpropanamide] yielded an MIC (C. parapsilosis; read-out: MIC, C. parapsilosis ATCC 22019, Table 3a, 3 replicates, MIC recorded at 48 h) of 0.25 to 1 µg/mL (≈ 0.415 to 1.66 µM), an MIC (C. parapsilosis; read-out: MIC, C. parapsilosis ATCC 22019, Table 3b (additional results), 3 replicates, MIC recorded at 48 h) of 1.01 to 2 µg/mL (≈ 1.68 to 3.32 µM) and an IC50 (human (hACC2); Table 2a) of 10 to 40 nM. For the same compound, the IC50 (human (hACC2); Table 2b, additional results) was 10 to 40 nM, the IC90 (Septoria tritici (St); read-out: Concentration at 90% Inhibition St, Septoria tritici, growth inhibition at 48 hours vs 2% DMSO control) was 10 µg/mL (≈ 16.6 µM) and the IC90 (Septoria tritici (St); read-out: Concentration at 90% Inhibition St, Septoria tritici, growth inhibition vs 2% DMSO control at 48 hours) was over 50 µg/mL. It also gave an IC90 ([1]; read-out: Concentration at 90% Inhibition Pc, Phytophthora capsici, growth inhibition at 48 hours vs 2% DMSO control) of over 50 µg/mL, an IC90 ([1]; read-out: Concentration at 90% Inhibition Pc, Phytophthora capsici, growth inhibition vs 2% DMSO control at 48 hours) of over 50 µg/mL and an MIC (C. albicans; read-out: MIC, C. albicans ATCC 90028, Table 3a, 3 replicates, MIC recorded at 48 h) of 0.25 to 1 µg/mL (≈ 0.415 to 1.66 µM). The MIC (C. albicans; read-out: MIC, C. albicans ATCC 90028, Table 3b (additional results), 3 replicates, MIC recorded at 48 h) was 0.25 to 1 µg/mL (≈ 0.415 to 1.66 µM), the IC90 ([2]; read-out: Concentration at 90% Inhibition Cg, Collectotrichum graminicola, growth inhibition at 48 hours vs 2% DMSO control) was 0.4 µg/mL (≈ 0.664 µM) and the IC90 ([2]; read-out: Concentration at 90% Inhibition Cg, Collectotrichum graminicola, growth inhibition vs 2% DMSO control at 48 hours) was 0.4 µg/mL (≈ 0.664 µM). The IC90 (Rhizoctonia solani (Rs); read-out: Concentration at 90% Inhibition Rs, Rhizoctonia solani, mycelial plugs, growth inhibition at 48 hours vs 2% DMSO control) was 0.4 µg/mL (≈ 0.664 µM), the IC90 (Rhizoctonia solani (Rs); read-out: Concentration at 90% Inhibition Rs, Rhizoctonia solani, mycelial plugs, growth inhibition vs 2% DMSO control at 48 hours) was 0.4 µg/mL (≈ 0.664 µM) and the “Concentration at 90% Inhibition Fm” value [3, 5] was “AA (compound concentration of 0.08 ppm at 90% inhibition of fungal pathogens)”. The IC90 [3] was 0.08 µg/mL (≈ 0.133 µM), the MIC (C. krusei; read-out: MIC, C. krusei ATCC 6258, Table 3a, 3 replicates, MIC recorded at 48 h) was 0.06 to 0.24 µg/mL (≈ 0.0996 to 0.398 µM) and the MIC (C. krusei; read-out: MIC, C. krusei ATCC 6258, Table 3b (additional results), 3 replicates, MIC recorded at 48 h) was 1.01 to 2 µg/mL (≈ 1.68 to 3.32 µM). The IC90 ([4]; read-out: Concentration at 90% Inhibition Fv, Fusarium virguliforme, growth inhibition at 48 hours vs 2% DMSO control) was 0.4 µg/mL (≈ 0.664 µM), the IC90 ([4]; read-out: Concentration at 90% Inhibition Fv, Fusarium virguliforme, growth inhibition vs 2% DMSO control at 48 hours) was 0.4 µg/mL (≈ 0.664 µM) and the IC90 (Diplodia maydis (Dm); read-out: Concentration at 90% Inhibition Dm, Diplodia maydis, growth inhibition at 48 hours vs 2% DMSO control) was 0.4 µg/mL (≈ 0.664 µM). The IC90 (Diplodia maydis (Dm); read-out: Concentration at 90% Inhibition Dm, Diplodia maydis, growth inhibition vs 2% DMSO control at 48 hours) was 0.4 µg/mL (≈ 0.664 µM).
